According to US7943795B2, “Vitamin D receptor modulators” (Eli Lilly and Company, priority 2004, dated 2011):

Legend:
Type in all cases: cell-based
[1] = system: rat osteocalcin promoter; assay: OCN (osteocalcin) promoter assay; details: RG-15 (ROS 17/2.8) cells, 48 hr treatment, luciferase reporter
Procedure: 4. The OCN Promoter test is described in the “Assay” section of the Description, infra.
The OCN (Osteocalcin) Promoter Assay
The OCN Promoter Assay is an indicator and marker for osteoporosis. Desired assay results are EC50 less than or equal to 325 nM. Preferred assay results are less than 50 nM.
The activation of osteocalcin by VDR ligands is evaluated in a rat osteoblast-like cell line RG-15 (ROS 17/2.8) stably expressing rat osteocalcin promoter fused with luciferase reporter gene. The stable cell lines are established as reported before (Activation of Osteocalcin Transcription involves interaction of protein kinase A- and Protein kinase C-dependent pathways. Boguslawski, G., Hale, L. V., Yu, X.-P., Miles, R. R., Onyia, J. E., Santerre R. F., Chandrasekhar, S. J Biol. Chem. 275, 999-1006, 2000). Confluent RG-15 cells maintained in DMEM/F-12 medium (3:1) containing 5% FBS, 300 μg/ml G418 and at 37° C. under 5% CO2/95% air atmosphere are trypsinized (0.25% trypsin) and plated into white opaque 96-well cell culture plates (25000 cells/well). After 24 hr, cells (in DMEM/F-12 medium+2% FBS) are treated with various concentrations of compounds, dissolved in DMSO. The final DMSO concentration remains at 0.01% (v/v). After 48 hr treatment, the medium is removed, cells are lysed with 50 μl of lysis buffer (From Luciferase reporter assay system, Roche Diagnostics, Indianapolis, Ind.) and then assayed for luciferase activity using the Luciferase Reporter Gene Assay kit from Boehringer Mannheim as per manufacturer's specifications.

[2] = target: T1, VDR (Homo sapiens, UniProt P11473); assay: VDR CTF (Caco-2 cells) co-transfection assay; details: pGal4-VDR-LBD, luciferase reporter
T1 construct: the receptor expression vector pGal4-VDR-LBD (10 ng); expressed in transfected cells; host or cells: Caco-2 cells
T1 sequence (P11473 127-423 limits assumed): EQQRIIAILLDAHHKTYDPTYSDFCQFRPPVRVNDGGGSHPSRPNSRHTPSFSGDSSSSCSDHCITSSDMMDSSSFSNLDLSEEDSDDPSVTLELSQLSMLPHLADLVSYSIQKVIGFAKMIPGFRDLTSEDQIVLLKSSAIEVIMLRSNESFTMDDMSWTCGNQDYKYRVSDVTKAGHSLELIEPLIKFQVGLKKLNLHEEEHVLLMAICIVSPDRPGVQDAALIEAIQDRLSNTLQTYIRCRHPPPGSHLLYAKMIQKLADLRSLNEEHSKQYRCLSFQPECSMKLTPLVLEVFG
Procedure: 3. The VDR CTF (Caco-2 cells) test is described in the “Assay” section of the Description, infra.
The Caco-2 cell assay is an indicator for the undesirable condition of hypercalcemia. This co-transfection assay is a surrogate assay for in vivo calcemic activity of VDR ligands. It is desirable to have high EC50 values for a test compound in this assay. The higher the EC50 values for a compound the less calcemic it will be in vivo. Desired assay results are EC50 greater than or equal to 300 nM. Preferred assay results are greater than 1000 nM.
Caco-2 cells, grown in phenol red free, DMEM (Invitrogen, Carlsbad, Calif.) containing 10% charcoal-stripped FBS (Hyclone, Logan, Utah), are transfected with Fugene 6 reagent (Roche Diagnostics, Indianapolis, Ind.). Cells (5000/well) are plated 18 h before transfection in a 96 well plate. The cells are transfected with Gal4-responsive reporter pFRLuc (150 ng, Stratagene, La Jolla Calif.) and the receptor expression vector pGal4-VDR-LBD (10 ng), along with Fugene 6 reagent (0.2 μl/well). The DNA-Fugene complex is formed by incubating the mixture for 30 m at room temperature. The cells are transfected in triplicate for 5 h, and treated with various concentrations of VDR ligands (from 0.01 nM to […] concentration range) 18 h post-transfection. The luciferase activity is quantified using Steady-Glo reagent kit (Promega, Madison, Wis.) as per manufacturer's specifications.

[3] = system: KERtr cells (Human skin keratinocyte); assay: Keratinocyte proliferation assay; details: 72 hr, BrdU incorporation, read-out: Keranocyte Proliferation IC50
Procedure: 6. The keratinocyte proliferation assay is described in the “Assay” section of the Description, infra.
The Keratinocyte Proliferation Assay
This Assay is indicative for the treatment of psoriasis. An acceptable test result is IC50 value of less than or equal to 300 nM. Preferred assay results are IC50 values of less than 100 nM.
KERtr cells (Human skin keratinocyte are transformed with a retrovirus vector, obtained from ATCC, then are plated in 96-well flat-bottomed plates (3000 cells/well) in 100 μl keratinocyte serum free medium supplemented with bovine pituitary extract in the absence of EGF (Life Technologies, Rockville, Md.) and are incubated at 37° C. for two days. The cells are treated with various concentrations of VDR ligands (ten-fold serial dilution from 10,000 nM to 0.1 nM in triplicate), dissolved in 100 μl keratinocyte serum free medium supplemented with bovine pituitary extract in the absence of EGF and are incubated at 37° C. for 72 hr. BrdU (5-bromo-2′-deoxyuridine) incorporation is analyzed as a measure of DNA replication (Cell proliferation ELISA kit, Roche Diagnostics, Indianapolis, Ind.) and absorbance is measured at […]. Potency values (IC50) values were determined as the concentration (nM) of compound that elicited a half-maximal response.

SMILES	EC50 [1] [nM]	EC50 [2] [nM]	EC50 ([1]; Rattus norvegicus, 48 h) [nM]	IC50 [3] [nM]
CCC(CC)(c1ccc(OCC(O)C(C)(C)C)c(C)c1)c1ccc2cc(C(=O)O)ccc2c1 (single isomer, unassigned) [Ex. 2A, 6-{1-Ethyl-1-[4-(2-hydroxy-3,3-dimethyl-butoxy)-3-methyl-phenyl]-propyl}-naphthalene-2-carboxylic acid]	6	466	–	–
CCC(CC)(c1ccc(OCC(=O)C(C)(C)C)c(C)c1)c1ccc2cc(C(=O)O)ccc2c1 [Ex. 1, 6-{1-[4-(3,3-dimethyl-2-oxobutoxy)-3-methylphenyl]-1-ethylpropyl}naphthalene-2-carboxylic acid]	–	194	2.6	653
CCC(CC)(c1ccc(OCC(=O)C(C)(C)C)c(C)c1)c1ccc2cc(C(=O)NCC(=O)O)ccc2c1 [Ex. 3, [(6-{1-[4-(3,3-Dimethyl-2-oxo-butoxy)-3-methylphenyl]-1-ethylpropyl}naphthalene-2-carbonyl)amino]acetic acid]	–	35	0.1	2
CCC(CC)(c1ccc(OCC(=O)C(C)(C)C)c(C)c1)c1ccc2cc(C(=O)N(C)C)ccc2c1 [Ex. 4, 6-{1-[4-(3,3-dimethyl-2-oxobutoxy)-3-methylphenyl]-1-ethylpropyl}naphthalene-2-carboxylic acid dimethylamide]	–	550	41	> 1000
CCC(CC)(c1ccc(OCC(=O)C(C)(C)C)c(C)c1)c1ccc2cc(C(=O)N(C)CC(=O)O)ccc2c1 [Ex. 5, [(6-{1-[4-(3,3-Dimethyl-2-oxobutoxy)-3-methylphenyl]-1-ethylpropyl}naphthalene-2-carbonyl)methylamino]acetic acid]	–	162	0.2	24
